Measurements as given in PubChem BioAssay (NCI).
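Following 48 hours of exposure in 96-well plates, responses at five concentrations were used to interpolate endpoints linearly. At the GI50, growth is halved. Definition used: TGI = concentration required for complete inhibition of growth.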

Columns and labels:
Assay in all cases: DTP human tumour cell line panel, 48 h
[1] = system: HCC-2998 colon
[2] = system: HCT-15 colon
[3] = system: CCRF-CEM leukemia
[4] = system: SK-OV-3 ovarian
[5] = system: SNB-75 CNS
[6] = system: NCI-H522 lung
[7] = system: OVCAR-4 ovarian
[8] = system: OVCAR-3 ovarian
[9] = system: EKVX NSCLC
[10] = system: HOP-92 NSCLC

Row | Compound | TGI [1] [µM] | TGI [2] [µM] | TGI [3] [µM] | TGI [4] [µM] | TGI [5] [µM] | TGI [6] [µM] | TGI [7] [µM] | TGI [8] [µM] | TGI [9] [µM] | TGI [10] [µM] | GI50 [1] [µM] | GI50 [2] [µM] | GI50 [3] [µM] | GI50 [4] [µM] | GI50 [5] [µM] | GI50 [6] [µM] | GI50 [7] [µM] | GI50 [8] [µM] | GI50 [9] [µM] | GI50 [10] [µM]
1 | Oc1ccc(/C=N/NC(=S)Nc2cccnc2)nc1 | > 100 | > 100 | 9.78 | > 100 | 97 | 21.7 | > 100 | > 100 | > 100 | 59.6 |  |  |  |  |  |  |  |  |  | 
2 | C/C(=N\NC(=S)N1CCN(c2ccccn2)CC1)c1cccc2cccnc12 | > 58.9 | > 100 | > 42.8 | 43.5 | > 70.2 | 9.63 | > 100 | > 29 | > 45.3 | 52.3 |  |  |  |  |  |  |  |  |  | 
3 | CC(=O)c1ccc(Oc2c3ccccc3nc3occc23)cc1 | 34 | 72.4 | > 100 | > 100 | > 100 | > 100 | > 100 | 6.58 | > 100 | > 100 | 6.35 | 2.39 | 4.8 | 59 | 21.1 | 4.68 | 46.9 | 2.19 | 73.3 | 31.6
4 | CSc1cc(C(C)(C)C)ccc1C(O)c1ccc(C(C)(C)C)cc1SC | 32.1 | 29.9 | 35.8 | 32.2 | 32.3 | 21.9 | 22.9 | 24.9 | 21.2 | 28.9 |  |  |  |  |  |  |  |  |  | 
5 | CC(=O)/C=C/c1ccc(N(CCO)Cc2ccc(C(C)(C)C)cc2)cc1 | 321 | 124 | 208 | 248 | 200 | 237 | 175 | 187 | 162 | 156 | 152 | 27.8 | 49 | 121 | 54.7 | 84.8 | 43.6 | 60.3 | 31 | 27.6
6 | C[C@@H](Oc1cc(-c2cnn(C3CCNCC3)c2)cnc1N)c1c(Cl)cc(F)cc1Cl | 8.65 | 12.5 | 9.88 | 10.8 | 4.38 | 5.73 | 10.8 | 13.5 | 17.3 | 3.6 | 2.42 | 2.7 | 0.504 | 3.26 | 1.65 | 1.79 | 2.86 | 4.13 | 3.72 | 0.73
7 | O=C(c1ccc(Nc2nccc(NCCCCNc3ccnc4cc(Cl)ccc34)n2)cc1)N1CCCCC1 | 5.42 | 6.43 | > 100 | 18 | 3.35 | 4.89 | 7.52 | 4.63 | 19.8 | 3.95 | 1.91 | 1.69 | 1.48 | 5.45 | 1.58 | 2.22 | 1.95 | 1.92 | 3.86 | 1.52
8 | COc1ccc(-c2nnc(Nc3nc(O)c(C4=c5cc(Br)ccc5=NC4=O)s3)o2)cc1 | 33.8 | > 63 | 32.7 | > 100 | 75.2 | > 74.2 | > 100 | 40.3 | > 55.8 | 65.6 | 1.34 | 18.4 | 6.79 | 52 | 21.6 | 19.8 | 27.5 | 15.5 | 9.89 | 21.2
9 | c1ccc2c(c1)[nH]c1c3ccccc3sc21 | > 100 | > 100 | > 100 | > 100 | > 100 | > 100 | > 100 | > 100 | > 100 | > 100 |  |  |  |  |  |  |  |  |  | 
10 | c1ccc(/C(=N\Nc2nc3ccccc3s2)c2ccccn2)cc1 | 46 | > 100 | 1.07 | 98.6 | > 100 | 36.7 | > 100 | 1.72 | 15.4 | > 71.6 |  |  |  |  |  |  |  |  |  | 
11 | COc1cccc(-c2nn(-c3ccccc3)cc2-c2ccnc(NCCCNS(=O)(=O)c3ccc(C(F)(F)F)cc3)c2)c1 | > 100 | > 100 | > 100 | > 100 | > 100 | 23 | > 100 | > 100 | > 100 | > 100 | 5.22 | 4.08 | 5.07 | 4.82 | 5.1 | 2.51 | 4.36 | 5.75 | 4.61 | 3.68
12 | C=C1C(=O)O[C@H]2[C@H]1CC/C(COC(=O)/C=C\C(=O)NCc1ccc(Cn3c(=O)sn(-c4ccc(Cl)cc4)c3=O)cc1)=C\CC[C@@]1(C)O[C@@H]21 | 1.7 | 1.47 | 6.65 | 10.7 | 1.31 | 1.55 | 1.37 | 0.821 | 1.58 | 1.35 | 0.896 | 0.331 | 0.173 | 4.04 | 0.623 | 0.632 | 0.685 | 0.223 | 0.809 | 0.569
13 | C=C1C(=O)O[C@H]2[C@H]1CC/C(COC(=O)N[C@H](Cc1c[nH]c3ccccc13)C(=O)OC)=C\CC[C@@]1(C)O[C@@H]21 | 4.6 | 3.43 | 6.69 | 26.4 | 22.5 | 3.22 | 20.4 | 3.07 | 5.66 | 5.87 | 2.25 | 1.53 | 1.78 | 13.4 | 8.35 | 1.52 | 6.44 | 1.44 | 1.8 | 1.94
14 | C=CCC1C(=O)CC2(C)C(CC=C)C(=O)CC12C (stereo not given) | > 100 | > 100 | > 100 | > 100 | > 100 | > 100 | > 100 | > 100 | > 100 | > 100 |  |  |  |  |  |  |  |  |  | 
15 | Cc1nn(-c2ccccc2)c2nc(C)n(-c3ccc(Br)cc3)c(=O)c12 | > 100 | > 100 | > 100 | > 100 | 0.725 | 18.6 | > 100 | > 36.7 | > 100 | 68 | 1.61 | 0.416 | 0.411 | 1.28 | 0.181 | 0.326 | 1.56 | 0.405 | 0.822 | 0.579
16 | C=CCN1C(=O)[C@]2(SC1=S)[C@H](c1cccc(Cl)c1)CN(C)[C@]21C(=O)NC2C=CC(Cl)=C[C@H]21 (stereo not given in full) | 19.1 | 13.1 | 11.6 | 29.2 | 18.2 | 20.6 | 10.2 | 14.2 | 24.6 | 14.9 | 5.05 | 2.89 | 3.25 | 8.36 | 2.37 | 5.79 | 2.13 | 3.43 | 4.54 | 3.17
17 | N/C(=N/S(=O)(=O)c1cc(C(=O)Nc2ccc(F)cc2)c(Cl)cc1SCc1ccccc1)Nc1ccccc1O | 7.34 | > 100 | 3.79 | 4.2 | 3.84 | 12.5 | 5.14 | 2.81 | 4.46 | 4.02 | 2.86 | 37.1 | 1.81 | 2.06 | 1.96 | 3.88 | 2.22 | 1.44 | 1.81 | 1.9
18 | NS(=O)(=O)c1cc(C(=O)O)c(Cl)c([N+](=O)[O-])c1Cl | > 100 | > 100 | > 100 | > 100 | > 100 | > 100 | > 100 | > 100 | > 100 | > 100 |  |  |  |  |  |  |  |  |  | 
19 | CCc1cccc(NC(=O)c2cc(/C=C/c3ccccc3)[nH]c(=S)n2)c1 | > 100 | > 100 | > 100 | > 100 | > 100 | > 100 | > 100 | > 100 | > 100 | > 100 |  |  |  |  |  |  |  |  |  | 
20 | CCOP(=O)(OCC)C(NC(c1ccccc1)c1ccccc1)c1ccc(C(C)C)cc1 (stereo not given) | 18.2 | 13.1 | 25.5 | 34.7 | 25.9 | 29.6 | 64.8 | 6.15 | 20.4 | 11 | 5.49 | 3.22 | 3.39 | 13.2 | 5.28 | 6.98 | 2.57 | 1.87 | 6.01 | 1.97
21 | CCC(C(=O)[C@@H](C)[C@@H](O)[C@H](C)[C@@H]1O[C@@H]([C@@H](CC)C(=O)ONC(=O)c2ccccc2)CC[C@@H]1C)[C@H]1O[C@]2(C=CC(=O)[C@]3(CC[C@@](C)([C@H]4CC[C@](O)(CC)[C@H](C)O4)O3)O2)[C@H](C)C[C@@H]1C (stereo not given in full) | 4.03 | 1.61 | 1.95 | 10.1 | 2.04 | 1.4 | > 40.1 | 1.29 | 2.65 | 1.87 | 0.658 | 0.349 | 0.12 | 2.79 | 0.238 | 0.0547 | 1.07 | 0.0849 | 0.548 | 0.141
22 | C/C=C(\C)C(=O)O[C@@H]1C=CC(=O)O[C@H]1CNC(=O)[C@H](C)O | 40.9 | 45.4 | 26.2 | 98.9 | > 74.3 | 30.5 | 42.9 | 37.8 | 49.5 | 37.5 | 20.4 | 18.5 | 6.1 | 39.4 | 24.4 | 13.1 | 19 | 17.4 | 20.9 | 17.4
23 | C1=C\CCCCN2CC[C@H]3[C@H](CCCC/C=C\CCCN4C[C@@H](CCCCC/1)C[C@@H]3C4)C2 | 7.6 | 7.77 | > 22.6 | 26.2 | 18.9 | 28.5 | 27.5 | 23.3 | 25 | 20.1 | 2.58 | 2.22 | 3.64 | 13.3 | 3.99 | 12.6 | 8.84 | 10.8 | 11.8 | 4.04
